These results are taken from patent US20260137736A1, “PROBIOTIC LACTOBACILLUS STRAIN COMPOSITIONS AND APPLICATIONS THEREFOR INCLUDING FOR LEAKY GUT AND INFLAMMATION” (priority 2021, published 2026).

Bounds are passed on as bounds.

Assay [1] has as its system L. reuteri growth. As to conditions: EFSA guideline species cut-off for L. reuteri; cited from earlier work.
Assay [2] relates to L. reuteri growth. The assay is described as follows: Antimicrobial susceptibility profiling, broth microdilution MIC against clinically relevant antibiotics (EFSA cut offs). Set-up: unit not given here. As to conditions: for Minimum inhibitory concentration (MIC), L. reuteri PTA-126787: strain L. reuteri PTA-126787, two biological replicates; for Minimum inhibitory concentration (MIC), L. reuteri PTA-126788: strain L. reuteri PTA-126788, two biological replicates. Type of assay: cell-based. On the procedure:
Antimicrobial susceptibility testing was performed using broth microdilution method, using LSB medium (Mueller Hinton broth containing 5% horse blood) following Clinical and Laboratory Standards Institute (CLSI, 28th edition) guidelines. Two-fold dilutions of the clinically relevant antibiotics (Clindamycin, Chloramphenicol, Erythromycin, Gentamicin, Kanamycin, Streptomycin, Tetracycline and Ampicillin, all purchased from Sigma Aldrich) were prepared in LSB medium. Approximately, 50 μL of 1×10^5 CFUs/mL of the L. reuteri cells were added into each well. “No antibiotic” and “medium” alone controls were included. […], Pseudomonas aeruginosa ATCC 27853, Staphylococcus aureus ATCC 29213, Enterococcus faecalis ATCC 29212, Streptococcus pneumonia ATCC 49619 and Lacticaseibacillus paracasei ATCC 334 were used as quality control organisms. The plates were incubated for 24-48 hours under microaerophilic conditions. […] The strains were classified as susceptible or resistant using the microbiological cut offs established by EFSA (35).
A general note: Dilution methods test growth across graded concentrations, often in twofold steps.

Take `O=C(N[C@H](CO)[C@H](O)c1ccc([N+](=O)[O-])cc1)C(Cl)Cl` [Chloramphenicol]: the “EFSA microbiological cut off values for L. reuteri” value (shortened to “EFSA microbiological cut off values”) with L. reuteri growth [1] is 4. Moreover, in the assay with L. reuteri growth [2], the “Minimum inhibitory concentration (MIC), L. reuteri PTA-126787” value came out at 2 and the “Minimum inhibitory concentration (MIC), L. reuteri PTA-126788” value is on record as 2.

Consider `CC1(C)S[C@@H]2[C@H](NC(=O)[C@H](N)c3ccccc3)C(=O)N2[C@H]1C(=O)O` [Ampicillin], for which, in the assay with L. reuteri growth [1], the “EFSA microbiological cut off values” value was 2. Further, in the assay on L. reuteri growth [2], the “Minimum inhibitory concentration (MIC), L. reuteri PTA-126787” value was 1 and the “Minimum inhibitory concentration (MIC), L. reuteri PTA-126788” value is listed as 1.

In the case of `CC[C@H]1OC(=O)[C@H](C)[C@@H](O[C@H]2C[C@@](C)(OC)[C@@H](O)[C@H](C)O2)[C@H](C)[C@@H](O[C@@H]2O[C@H](C)C[C@H](N(C)C)[C@H]2O)[C@](C)(O)C[C@@H](C)C(=O)[C@H](C)[C@@H](O)[C@]1(C)O` [Erythromycin], in the assay with L. reuteri growth [1], the “EFSA microbiological cut off values” value is reported as 1. In addition, in the assay with L. reuteri growth [2], the “Minimum inhibitory concentration (MIC), L. reuteri PTA-126787” value came out at 0.12 and the “Minimum inhibitory concentration (MIC), L. reuteri PTA-126788” value is on record as 0.12.

`NC[C@H]1O[C@H](O[C@H]2[C@H](O)[C@@H](O[C@H]3O[C@H](CO)[C@@H](O)[C@H](N)[C@H]3O)[C@H](N)C[C@@H]2N)[C@H](O)[C@@H](O)[C@@H]1O` [Kanamycin]: in the assay on L. reuteri growth [2], the “Minimum inhibitory concentration (MIC), L. reuteri PTA-126787” value is given as 16 and the “Minimum inhibitory concentration (MIC), L. reuteri PTA-126788” value came to 16.

For the molecule `CN(C)[C@@H]1C(O)=C(C(N)=O)C(=O)[C@@]2(O)C(O)=C3C(=O)c4c(O)cccc4[C@@](C)(O)[C@H]3C[C@@H]12` [Tetracycline], in the assay on L. reuteri growth [2], the “Minimum inhibitory concentration (MIC), L. reuteri PTA-126787” value is on record as 32/64 and the “Minimum inhibitory concentration (MIC), L. reuteri PTA-126788” value is listed as 32/64.

On to `CCC[C@@H]1C[C@@H](C(=O)N[C@@H]([C@H]2O[C@H](SC)[C@H](O)[C@@H](O)[C@H]2O)[C@H](C)Cl)N(C)C1` [Clindamycin], for which, in the assay with L. reuteri growth [2], the “Minimum inhibitory concentration (MIC), L. reuteri PTA-126787” value is listed as not below 0.06 and the “Minimum inhibitory concentration (MIC), L. reuteri PTA-126788” value was not below 0.06.

As to Gentamicin, in the assay on L. reuteri growth [1], the “EFSA microbiological cut off values” value was 8. Also, in the assay with L. reuteri growth [2], the “Minimum inhibitory concentration (MIC), L. reuteri PTA-126787” value was 1 and the “Minimum inhibitory concentration (MIC), L. reuteri PTA-126788” value was 1.

As to `[H]/N=C(/N)N[C@H]1[C@H](O)[C@@H](O)[C@H](O[C@@H]2O[C@@H](C)[C@](O)(C=O)[C@H]2O[C@@H]2O[C@@H](CO)[C@H](O)[C@@H](O)[C@@H]2NC)[C@@H](N/C(N)=N\[H])[C@@H]1O` [Streptomycin], the “EFSA microbiological cut off values” value in the assay with L. reuteri growth [1] was 64. In the assay on L. reuteri growth [2], the “Minimum inhibitory concentration (MIC), L. reuteri PTA-126787” value amounted to 8 and the “Minimum inhibitory concentration (MIC), L. reuteri PTA-126788” value is recorded as 8.
